# Results: EP2754453A1, “Conjugate of a cationic antimicrobial peptide and of a fatty acid for use as an anti-cancer agent” (UNIVERSITY COLLEGE DUBLIN, priority 2013, dated 2014)
# Read-outs that look alike come from different tables or passages of the source.
# Columns and labels:
# HeLa cells = assay: MTT cell viability assay (anti-proliferation activity); type: cell-based, human
# Procedure: (§1) The colorectal cancer (HT-29), lung carcinoma (A549) and T-cell leukemia (Jurkat) cell lines were maintained as monolayer cultures in RPMI-1640 supplemented with 100 µg/ml streptomycin, 100 U/ml penicillin and 10% (v/v) foetal bovine serum (FBS) (all from Sigma, Ireland). Human glioma (SNB-19), human pancreatic carcinoma (MiaPaCa) and breast carcinoma (MDA-MB-231) cells were obtained from the American Type Culture Collection (ATCC) and maintained in Dulbecco's Modified Eagle's Medium (DMEM) supplemented with 100 µg/ml streptomycin, 100 U/ml penicillin, 2 mM L-glutamine, and 10% (v/v) FBS. The melanoma cell line (WM793) was originally isolated from a superficial spreading melanoma and maintained in DMEM, supplemented with 10% (v/v) FBS, 50 µg/ml gentamicin and 4 µg/ml insulin (Sigma, Ireland). HeLa cells were obtained from the ATCC and maintained in DMEM supplemented with 100 µg/ml streptomycin, 100 U/ml penicillin, 2 mM L-glutamine, 0.1 mM non-essential amino acids (NEAA, Sigma), and 10% (v/v) FBS. Human umbilical vein endothelial cells (HUVEC) cells were obtained from Cambrex and maintained in an endothelial cell growth medium (Lonza, Dublin Ireland). Human Dermal fibroblast (HDF) cells were obtained from the European Collection of Cell Culture (ECACC) and were maintained in DMEM supplemented with 100 µg/ml streptomycin, 100 U/ml penicillin, 2 mM L-glutamine, and 10% (v/v) FBS. All cells were grown in humidified atmosphere of 95% air and 5% CO2 at 37°C.
# (§2) Reduction of MTT [(3-(4,5-dimethylthiazol-2-yl)-2,5-diphenyltetrazolium bromide] by cells was assessed colorimetrically as previously described. Assays were carried out after 48 h of cell incubation (72 h for combinational studies) in the media containing test compounds at concentrations ranging from 200 µM to 0.2 µM depending upon compounds being tested.
# T-cell leukemia (Jurkat) = assay: as above; type: cell-based, human; conditions: 48 h incubation, read-out: concentration at which 50% cell growth inhibition occurs (IC50)
# Procedure: as §1, §2
# [1] = test system: breast carcinoma (MDA-MB-231) cells; assay: as above; type: cell-based, human; conditions: 48 h incubation, read-out: concentration at which 50% cell growth inhibition occurs (IC50)
# Procedure: as §1, §2
# [2] = test system: colorectal cancer (HT-29); assay: as above; type: cell-based, human; conditions: HT-29, 48 h incubation; read-out: concentration at which 50% cell growth inhibition occurs (IC50)
# Procedure: as §1, §2
# [3] = test system: melanoma cell line (WM793); assay: as above; type: cell-based, human; conditions: WM793, 48 h incubation; read-out: concentration at which 50% cell growth inhibition occurs (IC50)
# Procedure: as §1, §2
# Human glioma (SNB-19) = assay: as above; type: cell-based; conditions: SNB-19, 48 h incubation; read-out: concentration at which 50% cell growth inhibition occurs (IC50)
# Procedure: as §1, §2
# [4] = test system: Human umbilical vein endothelial cells (HUVEC); assay: as above; type: cell-based; conditions: 48 h incubation, read-out: concentration at which 50% cell growth inhibition occurs (IC50)
# Procedure: as §1, §2
# [5] = test system: human pancreatic carcinoma (MiaPaCa); assay: as above; type: cell-based; conditions: 48 h incubation, read-out: concentration at which 50% cell growth inhibition occurs (IC50)
# Procedure: as §1, §2
# HeLa = assay: Western blot analysis of apoptosis markers; type: cell-based, human; conditions: Fig. 5A
# Procedure: (§3) Cells were lyzed and protein levels determined using the bicinchoninic acid method (Pierce, Rockford, IL). Protein samples were separated by SDS-PAGE under reducing conditions. Resolved proteins were transferred to methanol-activated polyvinylidenedifluoride (PVDF) membrane (Millipore, Bedford, MA, USA and blocked in 5% (w/v) bovine serum albumin for 1 h at room temperature. Primary antibody was applied to membranes overnight at 4°C (anti-cleaved Caspase 3, 8, 9 and poly ADP-ribose polymerase (PARP), (1:1000 dilution; Cell Signaling Technology, Danvers, USA). Chemiluminescent signal was detected using the Fluorchem FC2 Imaging System (Alpha Innotech, Switzerland). Membranes were stripped and reprobed with anti-β-actin antibodies (1:1000 dilution; Santa-Cruz Biotechnology, Santa Cruz, USA) so as to provide loading control.
# MiaPaCa = assay: Western blot analysis of apoptosis markers; type: cell-based, human; conditions: Fig. 5B
# Procedure: as §3
# lung carcinoma (A549) = assay: MTT cell viability assay (anti-proliferation activity); type: cell-based, human; conditions: A549, 48 h incubation; read-out: concentration at which 50% cell growth inhibition occurs (IC50)
# Procedure: as §1, §2
# [6] = test system: Human Dermal fibroblast (HDF) cells; assay: as above; type: cell-based; conditions: 48 h incubation, read-out: concentration at which 50% cell growth inhibition occurs (IC50)
# Procedure: as §1, §2
# MDA-MB-231 = conditions: cited from earlier work
# Jurkat = conditions: cited from earlier work
# [7] = HeLa, 48 h incubation, read-out: concentration at which 50% cell growth inhibition occurs (IC50)
Substance,IC50 (HeLa cells; [7]),IC50 (T-cell leukemia (Jurkat)),IC50 [1],IC50 [2],IC50 [3],IC50 (Human glioma (SNB-19)),IC50 [4],IC50 [5],Caspase 8 (HeLa),"apoptotic cell death (activation of caspase 3, 9 and the caspase substrate PARP) (HeLa)",Caspase 8 (MiaPaCa),"apoptotic cell death (activation of caspase 3, 9 and the caspase substrate PARP) (MiaPaCa)","IC50 (HeLa cells; HeLa cells, concentration used in uptake study of biotinylated peptides (Fig. 3A), read-out: approximately the IC50 value)",IC50 (lung carcinoma (A549)),IC50 [6],cytotoxic activity (MDA-MB-231),cytotoxic activity (Jurkat)
Kwklfkklpkflhlakkf (SEQ ID NO: 1) [DP18L],12.7 ± 1.2 µM,4.2 ± 0.6 µM,13.4 ± 2.4 µM,18.3 ± 0.9 µM,18.7 ± 3 µM,27.3 ± 1.8 µM,140 ± 18 µM,13.9 ± 0.6 µM,not detected at significant levels,induces apoptotic cell death,not detected at significant levels,induces apoptotic cell death,–,–,–,–,–
R10-kwklfkklpkflhlakkf [R10DP18L],2.8 ± 0.3 µM,3 ± 0.5 µM,3.1 ± 0.8 µM,–,–,–,9.2 ± 0.8 µM,–,–,–,–,–,~2.4 µM,2.5 ± 0.7 µM,7.9 ± 0.4 µM,–,–
Kwklfkkipkflhlakkf (SEQ ID NO: 2) [DP18],18 ± 0.4 µM,–,18.6 ± 0.8 µM,17.5 ± 0.5 µM,22.8 ± 0.8 µM,18.6 ± 1.5 µM,100 ± 9 µM,18.9 ± 1.5 µM,–,–,–,–,–,–,–,–,–
C10-kwklfkklpkflhlakkf [C10DP18L],3 ± 0.1 µM,3.8 ± 0.4 µM,–,–,–,4.3 ± 0.9 µM,–,5 ± 1.5 µM,–,–,–,–,–,–,–,–,–
KWKLFKKIPKFLHLAKKF [P18],–,–,–,–,–,–,–,–,–,–,–,–,–,–,–,displays cytotoxic activity,displays cytotoxic activity
